Data reported in ChEMBL document CHEMBL5506074, “Discovery and Optimization of Tetrahydroisoquinoline Derivatives To Enhance Lysosome Biogenesis as Preclinical Candidates for the Treatment of Alzheimer's Disease” (J Med Chem, 2024).
The source made the active and inactive calls. No cut-off for these calls is given here.

How the values were obtained:
[1] = Induction of TFEB nuclear translocation in human HeLa cells expressing EGFP at 10 uM measured at 3 hrs by fluorescence microscopic analysis; assay type: functional
[2] = Tmax in ICR mouse at 20 mg/kg, po measured upto 24 hrs by LC-MS/MS analysis; assay type: ADME, organism-based; conditions: in vivo
[3] = Half life in ICR mouse at 20 mg/kg, po measured upto 24 hrs by LC-MS/MS analysis; assay type: ADME, organism-based; conditions: in vivo
[4] = Cmax in ICR mouse at 10 mg/kg, ip measured upto 24 hrs by LC-MS/MS analysis; assay type: ADME, organism-based; conditions: in vivo
[5] = Bioavailability in ICR mouse at 5 mg/kg, ip measured upto 24 hrs by LC-MS/MS analysis; assay type: ADME, organism-based; conditions: in vivo
[6] = Oral bioavailability in ICR mouse at 20 mg/kg measured upto 24 hrs by LC-MS/MS analysis; assay type: ADME, organism-based; conditions: in vivo
[7] = Ratio of drug concentration in ICR mouse brain to plasma at 10 mg/kg, ip measured upto 24 hrs by LC-MS/MS analysis; assay type: ADME, organism-based; conditions: brain and plasma, read-out: BPR
[8] = Acute toxicity in C57BL/6J mouse assessed as brain damage at 50 mg/kg, ip measured upto 14 days by H and E staining based analysis; assay type: organism-based; conditions: in vivo, 336 h, time < 14 day
HeLa [9] = experiment: Induction of lysosome biogenesis in human HeLa cells assessed as increase in number of acidified lysosomes at 10 uM incubated for 24 hrs by LysiTracker red staining based flow cytometry analysis; assay type: functional, cell-based
HeLa [10] = experiment: Upregulation of LAMP1 mRNA expression in human HeLa cells at 10 uM incubated for 24 hrs by qRT-PCR analysis; assay type: functional, cell-based
HeLa [11] = experiment: Upregulation of OPTN mRNA expression in human HeLa cells at 10 uM incubated for 24 hrs by qRT-PCR analysis; assay type: functional, cell-based
HeLa [12] = experiment: Upregulation of p62 mRNA expression in human HeLa cells at 10 uM incubated for 24 hrs by qRT-PCR analysis; assay type: functional, cell-based
HeLa [13] = experiment: Upregulation of ATG2A mRNA expression in human HeLa cells at 10 uM incubated for 24 hrs by qRT-PCR analysis; assay type: functional, cell-based
HeLa [14] = experiment: Upregulation of Atg16L1 mRNA expression in human HeLa cells at 10 uM incubated for 24 hrs by qRT-PCR analysis; assay type: functional, cell-based
HeLa [15] = experiment: Upregulation of UVRAG mRNA expression in human HeLa cells at 10 uM incubated for 24 hrs by qRT-PCR analysis; assay type: functional, cell-based
HeLa [16] = experiment: Upregulation of LAMP1 mRNA expression in TFEB knockout human HeLa cells at 10 uM incubated for 24 hrs by qRT-PCR analysis; assay type: functional, cell-based
HeLa [17] = experiment: Upregulation of HEXA mRNA expression in TFEB knockout human HeLa cells at 10 uM incubated for 24 hrs by qRT-PCR analysis; assay type: functional, cell-based
HeLa [18] = experiment: Upregulation of CTSD mRNA expression in TFEB knockout human HeLa cells at 10 uM incubated for 24 hrs by qRT-PCR analysis; assay type: functional, cell-based
HeLa [19] = experiment: Upregulation of LC3B mRNA expression in TFEB knockout human HeLa cells at 10 uM incubated for 24 hrs by qRT-PCR analysis; assay type: functional, cell-based
HeLa [20] = experiment: Upregulation of UVRAG mRNA expression in TFEB knockout human HeLa cells at 10 uM incubated for 24 hrs by qRT-PCR analysis; assay type: functional, cell-based
HeLa [21] = experiment: Cytotoxicity against human HeLa cells assessed as effect on cell viability at 10 uM incubated for 24 hrs; assay type: functional, cell-based
HeLa [22] = experiment: Induction of cell cycle arrest in human HeLa cells assessed as effect on CDK7 level at 10 uM incubated for 12 hrs by qRT-PCR analysis; assay type: functional, cell-based
HeLa [23] = experiment: Induction of cell cycle arrest in human HeLa cells assessed as effect on p21 level at 10 uM incubated for 12 hrs by qRT-PCR analysis; assay type: functional, cell-based
[24] = target: T1, Sodium-dependent dopamine transporter (Homo sapiens, UniProt Q01959); experiment: Displacement of [3H] dopamine from DAT in HEK293 cells incubated for 1 hr by topcount plate reader analysis; assay type: cell-based
[25] = target: T1, Sodium-dependent dopamine transporter; experiment: Displacement of [3H] dopamine from DAT in HEK293 cells assessed as inhibition constant incubated for 1 hr by topcount plate reader analysis; assay type: cell-based
[26] = target: T1, Sodium-dependent dopamine transporter; experiment: Displacement of [3H] dopamine from DAT in HEK293 cells incubated for 15 mins by microbeta analysis; assay type: cell-based
Mus musculus [27] = experiment: Anti-alzheimer activity against APP/PS1 mouse model assessed as upregulation of LAMP1 mRNA expression in brain at 10 mg/kg, ip administered for 30 days; assay type: functional, organism-based; conditions: time 30.0 day
[28] = Toxicity in APP/PS1 mouse model assessed as change in body weight at 10 mg/kg, ip administered every other day for 30 days; assay type: organism-based; conditions: in vivo, 720 h, time 30 day
Mus musculus [29] = experiment: Anti-alzheimer activity against APP/PS1 mouse model assessed as reduction in amyloid beta plaque in cortex at 10 mg/kg, ip administered for 30 days; assay type: functional; design: scale not given: the % may be the effect or the level left; conditions: time 30 day
Mus musculus [30] = experiment: Anti-alzheimer activity against APP/PS1 mouse model assessed as reduction in amyloid beta 42 plaque in hippocampus at 10 mg/kg, ip administered for 30 days; assay type: functional; design: scale not given: the % may be the effect or the level left; conditions: time 30 day
Mus musculus [31] = experiment: Anti-alzheimer activity against APP/PS1 mouse model assessed as upregulation of p62 mRNA expression in brain at 10 mg/kg, ip administered for 30 days; assay type: functional, organism-based; conditions: time 30.0 day
Mus musculus [32] = experiment: Anti-alzheimer activity against APP/PS1 mouse model assessed as upregulation of WIPL1 mRNA expression in brain at 10 mg/kg, ip administered for 30 days; assay type: functional, organism-based; conditions: time 30.0 day

T1 sequence (Q01959 whole entry): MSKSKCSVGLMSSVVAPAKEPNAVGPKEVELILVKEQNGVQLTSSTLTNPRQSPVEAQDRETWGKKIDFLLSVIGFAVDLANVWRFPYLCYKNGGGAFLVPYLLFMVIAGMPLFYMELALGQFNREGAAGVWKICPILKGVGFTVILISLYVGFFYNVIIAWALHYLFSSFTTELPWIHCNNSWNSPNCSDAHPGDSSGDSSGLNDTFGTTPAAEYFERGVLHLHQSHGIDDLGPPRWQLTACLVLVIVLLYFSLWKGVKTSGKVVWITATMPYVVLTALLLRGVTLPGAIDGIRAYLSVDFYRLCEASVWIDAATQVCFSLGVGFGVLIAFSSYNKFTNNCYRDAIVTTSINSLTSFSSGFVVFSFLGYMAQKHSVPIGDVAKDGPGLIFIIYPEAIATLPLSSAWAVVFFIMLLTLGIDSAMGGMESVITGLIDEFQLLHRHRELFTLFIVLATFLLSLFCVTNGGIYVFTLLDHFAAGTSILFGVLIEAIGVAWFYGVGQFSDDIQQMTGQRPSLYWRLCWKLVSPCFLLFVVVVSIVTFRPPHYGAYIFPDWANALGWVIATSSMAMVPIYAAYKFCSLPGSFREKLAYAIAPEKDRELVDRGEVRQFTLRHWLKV

Structure (SMILES)	Activity [1] [%]	Tmax [2] [h]	half-life [3] [h]	Cmax [4] [ng/mL]	bioavailability [5] [%]	Kp at 24 h [7]	Activity [8]	Activity (HeLa [10])	Activity (HeLa [11])	Activity (HeLa [12])	Activity (HeLa [13])	Activity (HeLa [14])	Activity (HeLa [15])	Activity (HeLa [16])	Activity (HeLa [17])	Activity (HeLa [18])	Activity (HeLa [19])	Activity (HeLa [20])	Activity (HeLa [21])	Activity (HeLa [22])	further results
c1ccc2c(CCC3NCCc4cc5c(cc43)OCO5)c[nH]c2c1 (stereo not given)	44	0.58	3.1	4720	115	1.1	Non-Toxic	Active	Active	Active	Active	Active	Active	Active	Active	Active	Active	Active	Active	inactive	bioavailability ([6]; ICR): 76.4%; Activity (HeLa [9]): Active; Activity (HeLa [23]): inactive; IC50 [24]: 2.15 µM; Ki [25]: 0.68 µM; IC50 [26]: 6.34 µM; Activity (Mus musculus [27]): Active; Activity [28]: Non-Toxic; Activity (Mus musculus [29]): 26.5%; Activity (Mus musculus [30]): 43.6%; Activity (Mus musculus [31]): Active; Activity (Mus musculus [32]): Active
Fc1ccc2[nH]cc(CCC3c4cc5c(cc4CCN3CC3CCOCC3)OCO5)c2c1 (stereo not given)	72	0.42	2.37	146	25.7	5.2	Non-Toxic	Active	Active	Active	Active	Active	Active	Active	Active	Active	Active	Active	Active	inactive	F ([6]; po, 20 mg/kg, 24 h): 6.73%; Activity (HeLa [23]): inactive; Activity (Mus musculus [27]): Active; Activity [28]: Non-Toxic; Activity (Mus musculus [29]): 29.5%; Activity (Mus musculus [30]): 25.4%; Activity (Mus musculus [31]): Active; Activity (Mus musculus [32]): Active
